Where a SMILES comes first, the peptide text is derived from it. Bridges are numbered along the chain shown (N, C = ends). [ ]: non-standard residue; d: D form. ξ: configuration not given here. Trp(1-CH2COOH) = N[C@@H](Cc1cn(CC(=O)O)c2ccccc12)C(=O)O; Phe(3,4,5-F3) = N[C@@H](Cc1cc(F)c(F)c(F)c1)C(=O)O; Bta = N[C@@H](Cc1csc2ccccc12)C(=O)O; ξPro(4R-OH) = O=C(O)C1C[C@@H](O)CN1; Hyp = O=C(O)[C@@H]1C[C@@H](O)CN1; NMeF = CN[C@@H](Cc1ccccc1)C(=O)O; Aad = N[C@@H](CCCC(=O)O)C(=O)O; NMeNle = CCCC[C@H](NC)C(=O)O; Pip = O=C(O)[C@@H]1CCCCN1; hSer = N[C@@H](CCO)C(=O)O; ξR = N=C(N)NCCCC(N)C(=O)O; NMeA = CN[C@@H](C)C(=O)O; Orn = NCCC[C@H](N)C(=O)O; dNMeA = CN[C@H](C)C(=O)O; dThz = O=C(O)[C@H]1CSCN1; Dab = NCC[C@H](N)C(=O)O; Dap = NC[C@H](N)C(=O)O; ξC = NC(CS)C(=O)O

T1 sequence (Q9NZQ7 with tags, fused parts or gaps): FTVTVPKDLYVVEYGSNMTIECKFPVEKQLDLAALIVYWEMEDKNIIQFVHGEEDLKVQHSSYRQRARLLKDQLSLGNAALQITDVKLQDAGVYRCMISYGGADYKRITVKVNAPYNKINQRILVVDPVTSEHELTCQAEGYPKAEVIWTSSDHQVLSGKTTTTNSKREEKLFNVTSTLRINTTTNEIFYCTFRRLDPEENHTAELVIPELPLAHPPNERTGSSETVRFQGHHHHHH

One test has as its target T1, Human PD-L1/PD-1 (Homo sapiens, UniProt Q9NZQ7).
T1 construct: TVMV protease cleavage site (C); made in house; host or cells: HEK293T cells
Kind of test: HTRF Human PD-L1/PD-1 binding assay (PD-1-Ig/PD-L1-His). The note with it: PD-L1-His 10 nM, PD-1-Ig 20 nM; class symbol; read-out: HTRF Human PD-L1/PD-1 Binding Assay IC50 Range. In outline: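 Competition of macrocyclic peptides for PD-1/PD-L1 binding measured by HTRF in dPBS containing 0.1% BSA and 0.05% Tween-20. Compound and PD-L1-His (10 nM final) incubated 15 min before PD-1-Ig (20 nM final) and a further 15 min.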
A general note: Time-resolved FRET reads energy transfer from a long-lived donor to a nearby acceptor.
`CCCC[C@H]1C(=O)N(C)[C@@H](CCCC)C(=O)N[C@@H](CCCNC(=N)N)C(=O)NC(C(=O)NCC(N)=O)CSCC(=O)N[C@@H](Cc2ccc(O)cc2)C(=O)N(C)[C@@H](C)C(=O)N[C@@H](CC(N)=O)C(=O)N2CCC[C@H]2C(=O)N[C@@H](CC(N)=O)C(=O)N[C@@H](CC(C)C)C(=O)N2CCC[C@H]2C(=O)N[C@@H](Cc2c[nH]c3ccccc23)C(=O)N[C@@H](CCO)C(=O)N[C@@H](Cc2c[nH]c3ccccc23)C(=O)N1C` (some centres unmarked) [Example 9128] ({CH2CO}-Y[NMeA]NPNLPW[hSer]W[NMeNle][NMeNle]R[ξC]G-NH2; thioether N-14): the IC50 is 1 to 9.9 nM.

For the compound `CCCC[C@H]1C(=O)N(C)[C@@H](CCCC)C(=O)N[C@@H](CC(C)C)C(=O)N[C@H](C(=O)NCC(N)=O)CSCC(=O)N[C@@H](Cc2ccc(O)cc2)C(=O)N2CCCC[C@H]2C(=O)N[C@@H](CC(=O)O)C(=O)N2CCC[C@H]2C(=O)N[C@@H](Cc2cnc[nH]2)C(=O)N[C@@H](CCC(N)=O)C(=O)N2C[C@H](O)C[C@H]2C(=O)N[C@@H](Cc2c[nH]c3ccccc23)C(=O)N[C@@H](CO)C(=O)N[C@@H](Cc2cn(CC(=O)O)c3ccccc23)C(=O)N1C` [Example 1293] ({CH2CO}-Y[Pip]DPHQ[Hyp]WS[Trp(1-CH2COOH)][NMeNle][NMeNle]LCG-NH2; thioether N-14), the IC50 lay in the range of 10 to 99.9 nM.

Take `CCCC[C@H]1C(=O)N(C)[C@@H](CCCC)C(=O)NC(CCCNC(=N)N)C(=O)N[C@H](C(=O)NCC(N)=O)CCCC(=O)N[C@@H](Cc2ccc(O)cc2)C(=O)N(C)[C@@H](C)C(=O)N[C@@H](CC(N)=O)C(=O)N2CCC[C@H]2C(=O)N[C@@H](CN)C(=O)N[C@@H](CC(C)C)C(=O)N2C[C@H](O)CC2C(=O)N[C@@H](Cc2c[nH]c3ccccc23)C(=O)N[C@@H](CO)C(=O)N[C@@H](Cc2c[nH]c3ccccc23)C(=O)N1C` (stereo partly drawn) [Example 7067] (Y[NMeA]NP[Dap]L[ξPro(4R-OH)]WSW[NMeNle][NMeNle][ξR][Aad]G-NH2; lactam N-14): the IC50 lay in the range of 10 to 99.9 nM.

Turning to `CCCC[C@H]1C(=O)N2CCC[C@@H]2C(=O)N[C@@H](CN)C(=O)N[C@@H](C(C)C)C(=O)N(C)[C@@H](Cc2ccccc2)C(=O)N[C@@H](Cc2ccc(O)cc2)C(=O)N2CSC[C@@H]2C(=O)N[C@@H](Cc2c[nH]c3ccccc23)C(=O)N[C@@H](Cc2ccc(O)cc2)C(=O)N[C@@H](CC(C)C)C(=O)N[C@H](C(=O)NCC(N)=O)CSCC(=O)N[C@@H](Cc2ccccc2)C(=O)N(C)[C@@H](Cc2ccccc2)C(=O)N1C` [Example 10071] ({CH2CO}-F[NMeF][NMeNle][dP][Dap]V[NMeF]Y[dThz]WYLCG-NH2; thioether N-13), the IC50 was in the range of 10 to 99.9 nM.

As to `CCCC[C@H]1C(=O)N(C)[C@@H](CCCC)C(=O)N[C@@H](C)C(=O)N[C@H](C(=O)NCC(N)=O)CSCC(=O)N[C@@H](Cc2ccc(O)cc2)C(=O)N2CCCC[C@H]2C(=O)N[C@@H](CC(=O)O)C(=O)N2CCC[C@H]2C(=O)N[C@@H](CN)C(=O)N[C@@H](CCC(N)=O)C(=O)N2C[C@H](O)C[C@H]2C(=O)N[C@@H](Cc2c[nH]c3ccccc23)C(=O)N[C@@H](CO)C(=O)N[C@@H](Cc2csc3ccccc23)C(=O)N1C` [Example 1507] ({CH2CO}-Y[Pip]DP[Dap]Q[Hyp]WS[Bta][NMeNle][NMeNle]ACG-NH2; thioether N-14), the IC50 lay within 1 to 9.9 nM.

In the case of `CCCC[C@H]1C(=O)N(C)[C@@H](CCCC)C(=O)N[C@@H](CCCN)C(=O)N[C@H](C(=O)NCC(N)=O)CSCC(=O)N[C@@H](Cc2ccc(OC)cc2)C(=O)N(C)[C@@H](C)C(=O)N[C@@H](CCN)C(=O)N2CCC[C@H]2C(=O)N[C@@H](Cc2cnc[nH]2)C(=O)N[C@@H](CCC(=O)O)C(=O)N2C[C@H](O)C[C@H]2C(=O)N[C@@H](Cc2c[nH]c3ccccc23)C(=O)N[C@@H](CCN)C(=O)N[C@@H](Cc2c[nH]c3ccccc23)C(=O)N1C` [Example 7090] ({CH2CO}-Y(Me)[NMeA][Dab]PHE[Hyp]W[Dab]W[NMeNle][NMeNle][Orn]CG-NH2; thioether N-14), the IC50 is 1 to 9.9 nM.

As for `CCCC[C@H]1C(=O)N(C)[C@@H](CCCC)C(=O)N[C@@H](CC(C)C)C(=O)N[C@H](C(=O)O)CSCC(=O)N[C@@H](Cc2ccc(O)cc2)C(=O)N(C)[C@@H](C)C(=O)N[C@@H](CC(N)=O)C(=O)N2CCC[C@H]2C(=O)N[C@@H](CN)C(=O)N[C@@H](CC(C)C)C(=O)N2C[C@H](O)C[C@H]2C(=O)N[C@@H](Cc2c[nH]c3ccccc23)C(=O)N[C@@H](CCCN)C(=O)N[C@@H](Cc2cn(CC(=O)O)c3ccccc23)C(=O)N1C` [Example 5199] ({CH2CO}-Y[NMeA]NP[Dap]L[Hyp]W[Orn][Trp(1-CH2COOH)][NMeNle][NMeNle]LC-OH; thioether N-14), the IC50 fell in the range of 1 to 9.9 nM.

Consider `CCCC[C@H]1C(=O)N(C)[C@@H](CCCC)C(=O)N[C@@H](CCC(=O)O)C(=O)NC(C(=O)NCC(N)=O)CSCC(=O)N[C@@H](Cc2ccc(O)cc2)C(=O)N(C)[C@@H](C)C(=O)N[C@@H](CC(N)=O)C(=O)N2CCC[C@H]2C(=O)N[C@@H](CC(N)=O)C(=O)N[C@@H](CC(C)C)C(=O)N2CCC[C@H]2C(=O)N[C@@H](Cc2c[nH]c3ccccc23)C(=O)N[C@@H](CCO)C(=O)N[C@@H](Cc2c[nH]c3ccccc23)C(=O)N1C` (some centres unmarked) [Example 9184] ({CH2CO}-Y[NMeA]NPNLPW[hSer]W[NMeNle][NMeNle]E[ξC]G-NH2; thioether N-14), for which the IC50 lay within 10 to 99.9 nM.

The same test, now with this note: PD-L1-His 10 nM, PD-1-Ig 20 nM; read-out: HTRF Human PD-L1/PD-1 Binding Assay IC50.
For `CC(C)C[C@@H]1NC(=O)[C@H](Cc2ccc(O)cc2)NC(=O)[C@H](Cc2c[nH]c3ccccc23)NC(=O)[C@@H](C)N(C)C(=O)[C@H](Cc2ccc(O)cc2)NC(=O)[C@H](Cc2ccccc2)N(C)C(=O)[C@H](C(C)C)NC(=O)[C@H](CCO)NC(=O)[C@@H](C)N(C)C(=O)[C@H](C)N(C)C(=O)[C@H](Cc2ccccc2)N(C)C(=O)[C@H](Cc2cc(F)c(F)c(F)c2)NC(=O)CSC[C@@H](C(=O)NCC(N)=O)NC1=O` [Example 9192] ({CH2CO}-[Phe(3,4,5-F3)][NMeF][NMeA][dNMeA][hSer]V[NMeF]Y[dNMeA]WYLCG-NH2; thioether N-13), the IC50 came to 14 nM.

With `CCCC[C@H]1C(=O)N(C)[C@@H](CCCC)C(=O)N[C@@H](CCCNC(=N)N)C(=O)NC(C(=O)NCC(N)=O)CSCC(=O)N[C@@H](Cc2ccc(O)cc2)C(=O)N(C)[C@@H](C)C(=O)N[C@@H](CC(N)=O)C(=O)N2CCC[C@H]2C(=O)N[C@@H](CCO)C(=O)N[C@@H](CC(C)C)C(=O)N2CCC[C@H]2C(=O)N[C@@H](Cc2c[nH]c3ccccc23)C(=O)N[C@@H](CO)C(=O)N[C@@H](Cc2csc3ccccc23)C(=O)N1C` (some centres unmarked) [Example 9149] ({CH2CO}-Y[NMeA]NP[hSer]LPWS[Bta][NMeNle][NMeNle]R[ξC]G-NH2; thioether N-14), the IC50 stood at 1000 nM.

In the case of `CCCC[C@H]1C(=O)N(C)[C@@H](CCCC)C(=O)N[C@@H](CCC(=O)O)C(=O)N[C@H](C(=O)NCC(N)=O)CSCC(=O)N[C@@H](Cc2ccc(OC)cc2)C(=O)N(C)[C@@H](C)C(=O)N[C@@H](CCN)C(=O)N2CCC[C@H]2C(=O)N[C@@H](CN)C(=O)N[C@@H](CCCCN)C(=O)N2C[C@H](O)C[C@H]2C(=O)N[C@@H](Cc2c[nH]c3ccccc23)C(=O)N[C@@H](CC(=O)O)C(=O)N[C@@H](Cc2c[nH]c3ccccc23)C(=O)N1C` [Example 7116] ({CH2CO}-Y(Me)[NMeA][Dab]P[Dap]K[Hyp]WDW[NMeNle][NMeNle]ECG-NH2; thioether N-14), the IC50 stood at 1000 nM.
